Measurements published in patent US6576271B2, “Method for inhibiting inflammation using bioflavonoids” (Board of Trustees operating Michigan State University, priority 1998, dated 2003).
Where two headings read alike, the source gives them in different places.

Columns and labels:
PGHS-1 (COX-1) = target: T1, PGHS-1 (COX-1) (Ovis aries, UniProt P05979); test: COX-1 inhibition by flavonoids and isoflavonoids, O2 uptake (Example 5); type: biochemical; conditions: for PGHS-1 (COX-1) inhibition: at 1000 μM concentrations; for COX-1 inhibitory activity: FIG. 9, 200 μm concentrations; for COX-1 inhibitory activity among isoflavonoids: COX-1/COX-2 stated together
T1 construct: purchased Oxford Biomedical Research (Oxford, Mich., USA)
T1 sequence (P05979 25-600): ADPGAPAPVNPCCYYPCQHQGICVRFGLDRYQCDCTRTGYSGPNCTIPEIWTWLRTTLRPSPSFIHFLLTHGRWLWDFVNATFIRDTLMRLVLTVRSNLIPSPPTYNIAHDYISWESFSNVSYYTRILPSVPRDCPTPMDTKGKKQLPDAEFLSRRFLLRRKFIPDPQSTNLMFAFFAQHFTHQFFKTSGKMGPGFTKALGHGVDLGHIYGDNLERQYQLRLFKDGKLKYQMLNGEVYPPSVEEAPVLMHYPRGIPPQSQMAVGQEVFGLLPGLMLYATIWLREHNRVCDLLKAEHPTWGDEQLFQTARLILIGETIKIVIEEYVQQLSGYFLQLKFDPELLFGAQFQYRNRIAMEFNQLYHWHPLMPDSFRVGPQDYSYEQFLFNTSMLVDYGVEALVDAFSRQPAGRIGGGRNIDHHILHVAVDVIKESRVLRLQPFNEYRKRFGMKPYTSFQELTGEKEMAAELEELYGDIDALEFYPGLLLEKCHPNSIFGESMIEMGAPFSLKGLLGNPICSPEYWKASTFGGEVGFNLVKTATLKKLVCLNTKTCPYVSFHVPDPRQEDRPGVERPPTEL
Text: (§1) This is an antiinflammatory assay for cyclooxygenase inhibition activity of flavonoids and isoflavonoids. Arachidonic acid and microsomal suspensions of PGHS-1 (COX-1) and COX-2 (PGHS-2) were purchased from Oxford Biomedical Research (Oxford, Mich., USA). Genistein, genistin, naringenin, quercetin, 5,8,4′-trihydroxy-6,7-dimethoxyflavone, kaempferol-3-rutinoside and 3′-methoxy kaempferol 3-rutinoside were purified from BALATON tart cherry by HPLC and were identified by ^1H- and ^13C NMR spectral data. Daidzein and formononetin were purchased from Research Plus, Inc. (Bayonne, N.J., USA). […] Luteolin was purchased from Adams Chemical Co. (Round Lake, Ill., USA).
For measuring the COX activity, flavonoids or isoflavonoids were dissolved in DMSO to yield 40 mM stock solution and was further diluted to the desired concentration according to the COX-1/COX-2 inhibitory activity of each compound assayed.
Anti-inflammatory assay: COX activities were measured using microsomal suspensions of PGHS-1 and PGHS-2. Microsomal membranes (5 mg protein/mL in 0.1 M Tris HCl, pH 7.4) were prepared and assayed on the same day. COX-1 and COX-2 assay was performed at 37° C. controlled by a circulation bath (Model-1166, VWR Scientific Products, Chicago, Ill.) by monitoring the rate of O2 uptake using a 5357 Oxygen electrode (INSTECH Laboratory, Plymouth Meeting, Pa.) (Meade, E. A., et al., J. Biol. Chem. 268 6610-6614 (1993)).
Each assay mixture contained 600 μL of 0.1 M Tris-HCl, pH 8.0, 1 mM phenol, 17 μg hemoglobin and 10 μM arachidonate and were mixed in a microchamber (INSTECH Laboratory, Plymouth Meeting, Pa., USA). […] Reactions were initiated by adding […] of microsomal protein (5 μL). Instantaneous inhibition was determined by measuring the cyclooxygenase activity initiated by adding microsomal suspensions of PGHS-1 or PGHS-2 in the assay mixtures containing 10 μM arachidonate and various concentrations of test compounds. […] The kinetics of the enzyme activity was monitored by Biological Oxygen Monitor (YSI model 5300, Yellow Springs Instrument CO., Inc., Yellow Springs, Ohio) and collected in Quicklog Data Acquisition and Control computer software (Strawberry Tree Inc., Sunnyvale, Calif., USA).
The COX-1/COX-2 activity of BALATON cherry bioflavonoids was determined by monitoring the O2 uptake. Reactions were initiated by adding PGHS enzyme preparation. One unit of cyclooxygenase represents oxygenation of 1 nmol of arachidonate/min under the standard assay condition by the COX enzyme. This assay was a modification of the assay reported by DeWitt et al. (Dewitt D. L., et al., J. Biol. Chem. 265 5192-5198 (1990)). […] This methodology can also be used for COX-2 assay as well using COX-2 enzyme. […] COX-1 inhibitory activities of flavonoids, kaempferol, quercetin, luteolin, quercetin 3-rhamnoside, 5,8,4′-trihydroxy-6,7-dimethoxyflavone were compared. Kaempferol 3-rutinoside, 3′-methoxy kaempferol 3-rutinoside and naringenin (FIG. 9), and five isoflavonoids, genistein, genistin, daidzein, formononetin and biochanin A (FIG. 8).
COX-1/COX-2 inhibitory activities of each compound at different concentrations was calculated by comparing the tangent of O2 uptake curves of test compounds with that of blank control. Each assay was repeated 3 times and the IC50 values (50 inhibitory concentrations) were calculated by linear regression analysis.

[1] = Tsuda et al. 1994; cited from earlier work
COX-2 (PGHS-2) = target: T2, COX-2 (PGHS-2) (Homo sapiens, UniProt P35354); test: COX-2 inhibition by flavonoids and isoflavonoids, O2 uptake (Example 5); type: biochemical; conditions: COX-1/COX-2 stated together
T2 construct: purchased Oxford Biomedical Research (Oxford, Mich., USA)
T2 sequence (P35354 18-604): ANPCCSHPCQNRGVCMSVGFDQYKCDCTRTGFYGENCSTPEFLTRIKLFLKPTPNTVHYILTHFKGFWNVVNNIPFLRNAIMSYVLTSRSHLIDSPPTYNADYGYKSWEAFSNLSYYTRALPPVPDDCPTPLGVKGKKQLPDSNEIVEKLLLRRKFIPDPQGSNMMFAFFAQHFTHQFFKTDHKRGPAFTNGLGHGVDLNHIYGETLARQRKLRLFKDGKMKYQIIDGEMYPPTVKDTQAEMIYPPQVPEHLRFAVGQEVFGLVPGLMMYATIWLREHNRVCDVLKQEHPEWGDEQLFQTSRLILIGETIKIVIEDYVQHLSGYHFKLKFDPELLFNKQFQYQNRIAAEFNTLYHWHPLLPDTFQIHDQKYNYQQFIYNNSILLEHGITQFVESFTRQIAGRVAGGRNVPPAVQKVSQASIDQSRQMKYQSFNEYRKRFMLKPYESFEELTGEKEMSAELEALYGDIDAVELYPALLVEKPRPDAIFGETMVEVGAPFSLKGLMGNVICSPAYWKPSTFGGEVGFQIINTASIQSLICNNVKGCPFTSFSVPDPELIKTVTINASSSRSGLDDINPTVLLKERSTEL
Text: as §1, with “Ill., USA). […]” for “Ill., USA).”
Anti-inflammatory assay: COX activities were measured using microsomal suspensions of PGHS-1 and PGHS-2. […]
Each assay mixture contained 600 μL of 0.1 M Tris-HCl, pH 8.0, 1 mM phenol, 17 μg hemoglobin and 10 μM arachidonate and were mixed in a microchamber (INSTECH Laboratory, Plymouth Meeting, Pa., USA). […] Instantaneous inhibition was determined by measuring the cyclooxygenase activity initiated by adding microsomal suspensions of PGHS-1 or PGHS-2 in the assay mixtures containing 10 μM arachidonate and various concentrations of test compounds. […]
The COX-1/COX-2 activity of BALATON cherry bioflavonoids was determined by monitoring the O2 uptake. […]

cyclooxygenase = conditions: cited from earlier work; for COX inhibition: literature reports
PGHS-1 enzyme = target: T3, PGHS-1 enzyme (Ovis aries, UniProt P05979); test: Cyclooxygenase activity of PGHS-1, initial rate of O2 uptake (Example 4); type: biochemical, ram
T3 construct: a microsomal fraction of ram seminal vesicles containing PGHS-1 enzyme; tissue Oxford Biomedical Research (Oxford, Mich.); host or cells: ram seminal vesicles (microsomal fraction)
T3 sequence (P05979 25-600): T1 sequence (P05979 25-600)

[2] = Sanchez De Medina et al. 1996; cited from earlier work
[3] = mean of triplicate, FIGS. 10 and 11, read-out: IC50 for inhibition of PGHS-1 enzyme (COX-1)

## O=c1cc(-c2ccc(O)c(O)c2)oc2cc(O)cc(O)c12 [luteolin]
PGHS-1 (COX-1); [3]
  IC50: 300 µM

## COc1cc(-c2oc3cc(O)cc(O)c3c(=O)c2O[C@@H]2O[C@H](CO[C@@H]3O[C@@H](C)[C@H](O)[C@@H](O)[C@H]3O)[C@@H](O)[C@H](O)[C@H]2O)ccc1O [3′-methoxy kaempferol 3-rutinoside]
PGHS-1 (COX-1)
  PGHS-1 (COX-1) inhibition: not active

## OC[C@H]1O[C@@H](Oc2cc3c(O)cc(O)cc3[o+]c2-c2ccc(O)c(O)c2)[C@H](O)[C@@H](O)[C@@H]1O [cyanidin-3-glucoside]
[1]
  antioxidant activities: strong antioxidant activities

## O=C1C[C@@H](c2ccc(O)cc2)Oc2cc(O)cc(O)c21 [naringenin]
PGHS-1 (COX-1)
  COX-1 inhibitory activity: dramatically decreased

## O=c1c(O)c(-c2ccc(O)c(O)c2)oc2cc(O)cc(O)c12 [quercetin]
PGHS-1 (COX-1)
  PGHS-1 (COX-1) inhibition: not active
PGHS-1 (COX-1); [3]
  IC50: 350 µM

## O=c1c(-c2ccc(O)cc2)coc2cc(O)ccc12 [daidzein]
PGHS-1 (COX-1)
  IC50: 400 µM

## O=c1c(-c2ccc(O)cc2)coc2cc(O[C@@H]3O[C@H](CO)[C@@H](O)[C@H](O)[C@H]3O)cc(O)c12 [genistin]
PGHS-1 (COX-1)
  COX-1 inhibitory activity among isoflavonoids: dramatically decreased
COX-2 (PGHS-2)
  COX-2 inhibitory activity among isoflavonoids: dramatically decreased

## C[C@H]1O[C@H](OC[C@H]2O[C@@H](Oc3c(-c4ccc(O)cc4)oc4cc(O)cc(O)c4c3=O)[C@H](O)[C@@H](O)[C@@H]2O)[C@@H](O)[C@@H](O)[C@@H]1O [Kaempferol 3-rutinoside]
PGHS-1 (COX-1)
  PGHS-1 (COX-1) inhibition: not active

## O=c1c(O)c(-c2ccccc2)oc2cc(O)cc(O)c12 [galangin]
cyclooxygenase; Wurm et al. 1982, read-out: IC50 cyclooxygenase inhibition
  IC50: 5.5 µM

## C[C@@H]1O[C@@H](OC[C@H]2O[C@@H](Oc3cc4c(O)cc(O)cc4[o+]c3-c3ccc(O)c(O)c3)[C@H](O[C@@H]3O[C@H](CO)[C@@H](O)[C@H](O)[C@H]3O)[C@@H](O)[C@@H]2O)[C@H](O)[C@H](O)[C@H]1O [anthocyanin 1]
PGHS-1 enzyme; higher concentrations than 300-nM, enzyme (PGHS-1/PGHS-2) not specified
  effect on activity of enzyme at higher concentrations: increased the activity of enzyme

## O=c1c(O)c(-c2ccc(O)cc2)oc2cc(O)cc(O)c12 [kaempferol]
PGHS-1 (COX-1)
  COX-1 inhibitory activity: highest COX-1 inhibition
PGHS-1 (COX-1); [3]
  IC50: 180 µM

## CC(C)=CCc1c(-c2ccc(O)cc2O)oc2c3c(cc(O)c2c1=O)OC(C)(C)C=C3 [morusin]
cyclooxygenase
  COX inhibition: active

## COc1ccc(-c2coc3cc(O)cc(O)c3c2=O)cc1 [biochanin A]
PGHS-1 (COX-1); [3]
  IC50: 350 µM

## COc1c(OC)c(O)c2c(=O)cc(-c3ccc(O)cc3)oc2c1O [5,8,4′-trihydroxy-6,7-dimethoxyflavone]
PGHS-1 (COX-1)
  COX-1 inhibitory activity: little or no COX-1 inhibition
  PGHS-1 (COX-1) inhibition: not active

## O=c1cc(-c2ccccc2)oc2ccccc12 [unsubstituted flavone, flavone]
cyclooxygenase
  COX inhibition: good COX inhibitor

## O=c1c(-c2ccc(O)cc2)coc2cc(O)cc(O)c12 [genistein]
PGHS-1 (COX-1)
  IC50: 80 µM
  COX-1 inhibitory activity among isoflavonoids: highest COX-1/COX-2 inhibitory activity
COX-2 (PGHS-2)
  COX-2 inhibitory activity among isoflavonoids: highest COX-1/COX-2 inhibitory activity

## C[C@@H]1O[C@@H](Oc2c(-c3ccc(O)c(O)c3)oc3cc(O)cc(O)c3c2=O)[C@H](O)[C@H](O)[C@H]1O [quercetin 3-rhamnoside]
PGHS-1 (COX-1)
  COX-1 inhibitory activity: not active
[2]
  in vivo anti-inflammatory activity: reported to have in vivo anti-inflammatory activity

## Oc1cc(O)c2cc(O)c(-c3ccc(O)c(O)c3)[o+]c2c1 [cyanidin]
PGHS-1 enzyme; inhibition of cyclooxygenase activity, FIG. 7
  IC50: 90 µM
